# Data taken from the supplement of paper PMC10307832.
# How the values were obtained:
# Assay in all cases: relative viability (nuclei count vs DMSO), 5 days (fraction); higher = more cells survive
# NCI-H2087 = test system: NCI-H2087
# Summary of the method: (§1)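 Dosing by pin tool came one day after lung cancer cell lines were seeded in 1536-well plates, using either one drug or a fixed anchor-drug dose plus five library-drug doses (not always all listed) in √10 steps. After 5 days, nuclei were counted on 4× images. Relative viability is treated-well nuclei count divided by vehicle-well nuclei count, and values are medians of duplicate plates.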
# LXF-289 = test system: LXF-289
# Summary of the method: as §1
# NCI-H1651 = test system: NCI-H1651
# Summary of the method: as §1
# COR-L23 = test system: COR-L23
# Summary of the method: as §1
# HCC-44 = test system: HCC-44
# Summary of the method: as §1
# LU99A = test system: LU99A
# Summary of the method: as §1
# NCI-H1792 = test system: NCI-H1792
# Summary of the method: as §1
# NCI-H1563 = test system: NCI-H1563
# Summary of the method: as §1
# NCI-H1355 = test system: NCI-H1355
# Summary of the method: as §1
# CAL-12T = test system: CAL-12T
# Summary of the method: as §1
# BEN = test system: BEN
# Summary of the method: as §1
# NCI-H460 = test system: NCI-H460
# Summary of the method: as §1
# PC-14 = test system: PC-14
# Summary of the method: as §1
# NCI-H1755 = test system: NCI-H1755
# Summary of the method: as §1
# NCI-H1993 = test system: NCI-H1993
# Summary of the method: as §1
# NCI-H1666 = test system: NCI-H1666
# Summary of the method: as §1
# SK-MES-1 = test system: SK-MES-1
# Summary of the method: as §1
# NCI-H520 = test system: NCI-H520
# Summary of the method: as §1
# NCI-H2085 = test system: NCI-H2085
# Summary of the method: as §1
# NCI-H1437 = test system: NCI-H1437
# Summary of the method: as §1
smiles,measurement,setting,value
CCNC(=O)c1noc(-c2cc(C(C)C)c(O)cc2O)c1-c1ccc(CN2CCOCC2)cc1 [Luminespib] + C[C@]1(O)C[C@@H](c2nc(-c3ccc4ccc(-c5ccccc5)nc4c3)c3c(N)nccn32)C1 [Linsitinib] (partner 1 µM),relative viability,NCI-H2087; first compound 0.002 µM,1.01
same,relative viability,NCI-H2087; first compound 0.006325 µM,0.714
same,relative viability,NCI-H2087; first compound 0.02 µM,1.08
same,relative viability,NCI-H2087; first compound 0.06325 µM,0.263
same,relative viability,NCI-H2087; first compound 0.2 µM,0.204
same,relative viability,LXF-289; first compound 0.002 µM,0.952
same,relative viability,LXF-289; first compound 0.006325 µM,0.879
same,relative viability,LXF-289; first compound 0.02 µM,1.12
same,relative viability,LXF-289; first compound 0.06325 µM,0.711
same,relative viability,LXF-289; first compound 0.2 µM,0.151
same,relative viability,NCI-H1651; first compound 0.002 µM,0.874
same,relative viability,NCI-H1651; first compound 0.006325 µM,0.983
same,relative viability,NCI-H1651; first compound 0.02 µM,1.08
same,relative viability,NCI-H1651; first compound 0.06325 µM,0.308
same,relative viability,NCI-H1651; first compound 0.2 µM,0.174
same,relative viability,COR-L23; first compound 0.002 µM,0.946
same,relative viability,COR-L23; first compound 0.006325 µM,0.811
same,relative viability,COR-L23; first compound 0.02 µM,1.03
same,relative viability,COR-L23; first compound 0.06325 µM,0.0654
same,relative viability,COR-L23; first compound 0.2 µM,0.0696
same,relative viability,HCC-44; first compound 0.002 µM,0.68
same,relative viability,HCC-44; first compound 0.006325 µM,0.714
same,relative viability,HCC-44; first compound 0.02 µM,0.684
same,relative viability,HCC-44; first compound 0.06325 µM,0.251
same,relative viability,HCC-44; first compound 0.2 µM,0.158
same,relative viability,LU99A; first compound 0.002 µM,0.574
same,relative viability,LU99A; first compound 0.006325 µM,0.486
same,relative viability,LU99A; first compound 0.02 µM,0.357
same,relative viability,LU99A; first compound 0.06325 µM,0.172
same,relative viability,LU99A; first compound 0.2 µM,0.144
same,relative viability,NCI-H1792; first compound 0.002 µM,0.444
same,relative viability,NCI-H1792; first compound 0.006325 µM,0.469
same,relative viability,NCI-H1792; first compound 0.02 µM,0.212
same,relative viability,NCI-H1792; first compound 0.06325 µM,0.297
same,relative viability,NCI-H1792; first compound 0.2 µM,0.106
same,relative viability,NCI-H1563; first compound 0.002 µM,1.34
same,relative viability,NCI-H1563; first compound 0.006325 µM,1.13
same,relative viability,NCI-H1563; first compound 0.02 µM,1.11
same,relative viability,NCI-H1563; first compound 0.06325 µM,0.535
same,relative viability,NCI-H1563; first compound 0.2 µM,0.542
same,relative viability,NCI-H1355; first compound 0.002 µM,0.903
same,relative viability,NCI-H1355; first compound 0.006325 µM,0.785
same,relative viability,NCI-H1355; first compound 0.02 µM,0.425
same,relative viability,NCI-H1355; first compound 0.06325 µM,0.763
same,relative viability,NCI-H1355; first compound 0.2 µM,0.81
same,relative viability,CAL-12T; first compound 0.002 µM,0.761
same,relative viability,CAL-12T; first compound 0.006325 µM,0.787
same,relative viability,CAL-12T; first compound 0.02 µM,0.72
same,relative viability,CAL-12T; first compound 0.06325 µM,0.128
same,relative viability,CAL-12T; first compound 0.2 µM,0.115
same,relative viability,BEN; first compound 0.002 µM,0.955
same,relative viability,BEN; first compound 0.006325 µM,0.892
same,relative viability,BEN; first compound 0.02 µM,0.427
same,relative viability,BEN; first compound 0.06325 µM,0.627
same,relative viability,BEN; first compound 0.2 µM,0.252
same,relative viability,NCI-H460; first compound 0.002 µM,0.862
same,relative viability,NCI-H460; first compound 0.006325 µM,0.64
same,relative viability,NCI-H460; first compound 0.02 µM,0.0374
same,relative viability,NCI-H460; first compound 0.06325 µM,0.0101
same,relative viability,NCI-H460; first compound 0.2 µM,0.0074
same,relative viability,PC-14; first compound 0.002 µM,0.896
same,relative viability,PC-14; first compound 0.006325 µM,0.897
same,relative viability,PC-14; first compound 0.02 µM,1.09
same,relative viability,PC-14; first compound 0.06325 µM,0.936
same,relative viability,PC-14; first compound 0.2 µM,0.146
same,relative viability,NCI-H1755; first compound 0.002 µM,0.974
same,relative viability,NCI-H1755; first compound 0.006325 µM,0.944
same,relative viability,NCI-H1755; first compound 0.02 µM,0.98
same,relative viability,NCI-H1755; first compound 0.06325 µM,0.946
same,relative viability,NCI-H1755; first compound 0.2 µM,0.921
same,relative viability,NCI-H1993; first compound 0.002 µM,0.829
same,relative viability,NCI-H1993; first compound 0.006325 µM,0.735
same,relative viability,NCI-H1993; first compound 0.02 µM,0.678
same,relative viability,NCI-H1993; first compound 0.06325 µM,0.534
same,relative viability,NCI-H1993; first compound 0.2 µM,0.576
same,relative viability,NCI-H1666; first compound 0.002 µM,0.707
same,relative viability,NCI-H1666; first compound 0.006325 µM,0.785
same,relative viability,NCI-H1666; first compound 0.02 µM,0.751
same,relative viability,NCI-H1666; first compound 0.06325 µM,0.803
same,relative viability,NCI-H1666; first compound 0.2 µM,0.511
same,relative viability,SK-MES-1; first compound 0.002 µM,1
same,relative viability,SK-MES-1; first compound 0.006325 µM,0.893
same,relative viability,SK-MES-1; first compound 0.02 µM,1.13
same,relative viability,SK-MES-1; first compound 0.06325 µM,0.916
same,relative viability,SK-MES-1; first compound 0.2 µM,0.164
same,relative viability,NCI-H520; first compound 0.002 µM,1.27
same,relative viability,NCI-H520; first compound 0.006325 µM,0.966
same,relative viability,NCI-H520; first compound 0.02 µM,0.94
same,relative viability,NCI-H520; first compound 0.06325 µM,0.134
same,relative viability,NCI-H520; first compound 0.2 µM,0.121
same,relative viability,NCI-H2085; first compound 0.002 µM,0.405
same,relative viability,NCI-H2085; first compound 0.006325 µM,0.76
same,relative viability,NCI-H2085; first compound 0.02 µM,0.826
same,relative viability,NCI-H2085; first compound 0.06325 µM,0.442
same,relative viability,NCI-H2085; first compound 0.2 µM,0.241
same,relative viability,NCI-H1437; first compound 0.002 µM,1.06
same,relative viability,NCI-H1437; first compound 0.006325 µM,0.989
same,relative viability,NCI-H1437; first compound 0.02 µM,1.08
same,relative viability,NCI-H1437; first compound 0.06325 µM,0.22
same,relative viability,NCI-H1437; first compound 0.2 µM,0.0998
